Columns and labels:
Format in all cases: biochemical, HIV-1
[1] = molecular target: T1, HIV reverse transcriptase (Human immunodeficiency virus type 1 group M subtype B, UniProt P03366); assay: Steady-state kinetic assay of Asp-dNMP incorporation by HIV RT (Example 4); settings: 37° C.; P1-T2, P1-T4 or P2T4
T1 construct: performed for the enzyme HIV reverse transcriptase (GE Healthcare, 30 U/4 stock solution); purchased GE Healthcare
Procedure: To determine the kinetic parameters of the incorporation of Asp-dGMP (9), Asp-dTMP (10), Asp-dCMP (11) or dGTP, dTTP, dCTP, a steady-state kinetic assay was carried out. The reaction mixture was started by adding HIV reverse transcriptase to P1-T2, P1-T4 or P2T4 complex, buffer and Asp-dGMP, Asp-dTMP, Asp-dCMP or dGTP, dTTP, dCTP. The final mixture (20 μL) contained 0.015 or 0.0075 U/μL HIV reverse transcriptase, buffer, 125 nM primer-template complex and various concentrations of Asp-dNMP or dNTP. A concentration range of 0.01-1 mM was used for Asp-dNPM and a concentration range of 0.1-10 μM was used for dNTP. Reactions were incubated at 37° C. Reaction times were between 1 and 120 minutes. The kinetic constants Vmax and KM were determined from a Michaëlis-Menten plot, using GraphPad Prism version 3.02.
(§1) All polymerase reactions (3 μL) were quenched by the addition of 10 μL of loading buffer (90% formamide, 0.05% bromophenol blue, 0.05% xylene cyanol and 50 mM EDTA). Samples were heated at 70° C. for 5 minutes prior to analysis by electrophoresis for 2-3 hours at 2000 V on a 0.4 mm 20% denaturing gel in the presence of a 100 mM Tris-borate, 2.5 mM EDTA buffer, pH 8.3. Products were visualized by phosphor imaging. The amount of radioactivity in the bands corresponding to the products of enzymatic reactions was determined by using the Optiquant image analysis software (Perkin Elmer).

[2] = molecular target: T1, HIV reverse transcriptase; assay: Gel-based single-nucleotide-incorporation and control assays with HIV RT (Example 4); settings: for control experiment with a mismatch sequence: A against A P1T4 (12), G against A P1T4 (9), T against C P1T2 (10), C against T P1T1 (11); for conversion to a n+1 strand: 60 min, 500 μM nucleotide concentration, P1T2 (9), P1T4 (10), P2T4 (11); for incorporation with blunt ended duplex: primer P1, template A
Procedure: End-labeled primers were annealed to their template by combining primer and templates in a molar ratio of 1:2 and heating the mixture to 70° C. for 10 minutes, followed by slow cooling to room temperature over a period of 2.5 hours. For the incorporation of L-Asp-dGMP (9), L-Asp-dTMP (10), L-Asp-dCMP (11), and N-Me-Asp-dAMP (12) (see FIG. 13), the primer P1 was annealed to templates T1, T2, T4 or A and P2 was annealed to T4. A series of 20 μL reactions was performed for the enzyme HIV reverse transcriptase (GE Healthcare, 30 U/4 stock solution). The final mixture contained 125 nM primer-template complex, RT buffer (250 mM TrisHCl, 250 mM KCl, 50 mM MgCl2, 2.5 mM spermidine, 50 mM DTT, pH 8.3), 0.03 U/μL HIV RT and different amino acid phosphoramidates building blocks concentrations. In the control reaction with the natural nucleotide, 10 μM or 50 μM dGTP, dTTP, dATP or dCTP were used. The mixture was incubated at 37° C. […] and aliquots were quenched after 5, 10, 20, 30, 60 and 120 minutes respectively.
as §1

HIV RT = molecular target: T2, HIV RT (Human immunodeficiency virus type 1 group M subtype B, UniProt P03366); assay: Steady state kinetics of single nucleotide incorporation by HIV RT (P1/T1); settings: P1/T1, 37° C.
T2 construct: HIV RT polymerase was purchased from GE Healthcare; purchased GE Healthcare (Amersham Bioscience)
Procedure: The steady steate kinetics of a single nucleotide incorporation of an amino acid phosphoramidate (AA-dAMP) and of a natural nucleoside triphosphate (dATP) was determined by the gel-based polymerase assay. In all the experiments, the template T1 and the primer P1 were used (Table 1). The primer and template in 1:2 molar ratio were hybridized in a buffer containing 20 mM TRIS.HCl, 10 mM KCl, 2 mM MgSO4, 0.1% Triton X-100, pH 8.8 and used in an amount to provide 125 nM concentration of the primer in each 12 μL reaction. The range of concentrations for amino acid phosphoramidates was optimized according to a Km value for the incorporation of an individual nucleotide. In the case of HIV RT (Amersham Bioscience (GE Healthcare), 30 U/μL), reaction mixtures containing the enzyme in concentration to attain 5-20% conversion and appropriate substrate concentration (nucleoside phosphoramidate or natural dNTP) were incubated at 37° C. and run for 8-10 different time intervals. Kinetic analysis of single nucleotide incorporation by Therminator DNA polymerase (NEB, 2 U/μL) was performed similarly except the incubations and polymerase reactions, which were carried out at 70° C. To prevent solvent condensation/evaporation, the reaction mixtures were topped with mineral oil. The reactions were quenched by addition of the buffer containing 80% formamide, 2 mM EDTA, 1×TBE buffer. The analysis of polymerase reactions was performed by polyacrylamide gel electrophoresis (20% (19:1 mono:bis), 7M urea, 30 cm×40 cm×0.4 mm). The relative band intensities were measured using OptiQuant software. The rates of incorporation (V) were calculated based on the percentage of the extension production (n+1 band). The kinetic parameters (Vmax and Km) were determined by plotting V (pmol/min·U) versus substrate concentration and fitting the data point to a rectangular hyperbola using GraphPad Prism software.

[3] = molecular target: T1, HIV reverse transcriptase; assay: Gel-based single-nucleotide-incorporation and control assays with HIV RT (Example 4); settings: P1/T2, compound 9 alone
[4] = molecular target: T3, HIV reverse transcriptase (HIV RT) (Human immunodeficiency virus type 1 group M subtype B, UniProt P03366); assay: Single nucleotide incorporation by HIV RT, gel-based, P1/T1 (Examples 2-3); settings: single nucleotide incorporation, FIG. 4
T3 construct: HIV RT polymerase was purchased from GE Healthcare; purchased GE Healthcare (Amersham Bioscience)
Procedure: A typical single nucleotide incorporation and primer extension assays using HIV RT polymerase was carried out similar to one described in the literature. HIV RT polymerase was purchased from GE Healthcare and was supplied as either 12 or 30 U/μL stock solution. The final concentration of HIV RT in a reaction mixture was 0.03-0.003 U/μL. A primer/template duplex mixture was prepared by combining appropriate amounts of a 5′-^33P-labeled primer (P1) and a template in 1:2 molar ratio to provide a 4× solution with 0.5 μM primer concentration. The polymerase reactions were carried out in a 5×RT buffer containing 250 mM TRIS.HCL, 250 mM KCl, 50 mM MgCl2, 2.5 mM spermidine, 50 mM DTT, pH 8.3. For the single nucleotide incorporation assay, a P1/T1 primer-template pair was used whereas the primer extension study was performed with P1/T3 and P1/T5 primer-template pairs.
Briefly, a mixture containing 5 μL of the 4× primer/DNA duplex solution and 5 μL of 4× polymerase solution was pre-incubated at 37° C. for 2 minutes to ensure formation a DNA polymerase/DNA duplex complex. Simultaneously, 2× solutions of dNTP to provide final concentrations of 100 μM, 200 μM, 500 μM and 1 mM were also pre-incubated at 37° C. for 2 minutes as well. The polymerase reaction in a total volume of 20 μL was initiated by addition of 10 μL of the 2× dNTP solution to the DNA polymerase/DNA duplex mixture. The reactions were run at 37° C. and aliquots (2.5 μL) were removed at specified time points and mixed with 10 μL of a quenching buffer containing 80% formamide, 2 mM EDTA, 1×TBE. Quenched reactions were analyzed by loading 2 μL of a reaction sample onto a 20% denaturing polyacrylamide:gel (19:1 acrylamide:bisacrylamide, 7M urea, 0.4 mm×30 cm×40 cm) made in 1×TBE buffer (90 mM Tris-borate, 2 mM EDTA, pH 8.3). The gel was pre-equilibrated for 2 hours before loading and the reactions were run along with a tracking dye marker containing bromophenol blue (BB) and xylene cyanol (XC) until the BB dye had run ⅔ of the total gel length. For visualization, gels were scanned using a Cyclone Phosphoroimager.

SMILES	Km [1]	Vmax [1]	control experiment with a mismatch sequence [2]	conversion to a n+1 strand [2]	incorporation with blunt ended duplex [2]	further results
Nc1ccn([C@H]2C[C@H](O)[C@@H](COP(=O)(O)OP(=O)(O)OP(=O)(O)O)O2)c(=O)n1 [dCTP, reference compound]	3.74 ± 0.95 µM	5.62 ± 0.80 pmolmin^−1U				
CN(C(CC(=O)O)C(=O)O)P(=O)(O)OC[C@H]1O[C@@H](n2cnc3c(N)ncnc32)C[C@@H]1O (some centres unmarked) [Compound 12, 2′-Deoxyadenosine-5′-N-methylaspartyl phosphoramidate]			misincorporated against adenine			base-pairing selectivity of incorporation ([2]; P1/T1): without base-pairing selectivity; substrate quality for HIV-RT ([2]; P1/T1): good substrate
Cc1cn([C@H]2C[C@H](O)[C@@H](COP(=O)(O)N[C@@H](CC(=O)O)C(=O)O)O2)c(=O)[nH]c1=O [Compound 10, 2′-Deoxythymidine-5′-aspartyl phosphoramidate]	288 ± 61.7 µM	2.33 ± 0.22 pmolmin^−1U	primer elongation was not observed	95%	none of these compounds incorporated at all	
Nc1ncnc2c1ncn2[C@H]1C[C@H](O)[C@@H](COP(=O)(O)OP(=O)(O)OP(=O)(O)O)O1 [dATP, reference compound]						Km (HIV RT): 460 ± 150 nM; Vmax (HIV RT): 8.39 ± 0.82 pmol/min · U
Cc1cn([C@H]2C[C@H](O)[C@@H](COP(=O)(O)OP(=O)(O)OP(=O)(O)O)O2)c(=O)[nH]c1=O [dTTP, reference compound]	0.53 ± 0.07 µM	30.82 ± 1.44 pmolmin^−1U				
Nc1ccn([C@H]2C[C@H](O)[C@@H](COP(=O)(O)N[C@@H](CC(=O)O)C(=O)O)O2)c(=O)n1 [Compound 11, 2′-Deoxycytidine-5′-aspartyl phosphoramidate]	131 ± 19.8 µM	0.59 ± 0.04 pmolmin^−1U	primer elongation was not observed	82%	none of these compounds incorporated at all	
Nc1nc2c(ncn2[C@H]2C[C@H](O)[C@@H](COP(=O)(O)N[C@@H](CC(=O)O)C(=O)O)O2)c(=O)[nH]1 [Compound 9, 2′-Deoxyguanosine-5′-aspartyl phosphoramidate]	169 ± 27.9 µM	2.143 ± 0.13 pmolmin^−1U	primer elongation was not observed	92%	none of these compounds incorporated at all	n+1 conversion (incorporation) ([3]; 4 hours (same as at 2 hours)): 95%; misincorporation ([3]; four hours): no misincorporation was observed
CC(NP(=O)(O)OC[C@H]1O[C@@H](n2cnc3c(N)ncnc32)C[C@@H]1O)C(=O)O (some centres unmarked) [Compound 4, 2′-deoxy-adenosine-5′-alanyl-phosphoramidate]						fold reduction in primer extension [4]: 7 fold
Nc1nc2c(ncn2[C@H]2C[C@H](O)[C@@H](COP(=O)(O)OP(=O)(O)OP(=O)(O)O)O2)c(=O)[nH]1 [dGTP, reference compound]	0.54 ± 1.55 µM	28.81 ± 1.55 pmolmin^−1U				

Reference: patent publication US8242087B2, “Phosphate modified nucleosides useful as substrates for polymerases and as antiviral agents” (priority 2007, dated 2012)
